Test: Isomerization of 4-hydroxy tamoxifen in hydroalcoholic solutions at 25°, 30° and 40° C., Z/E isomers by HPLC (Example 1)
Assay type: physicochemical
Procedure: Hydroalcoholic solutions containing 4-hydroxy tamoxifen were prepared, based on the following gel formula: […]
In the hydroalcoholic solutions, phosphate buffer was substituted for Klucel. The composition of the buffer was as follows:
At each of the stated concentrations, separate solutions containing Z-4-hydroxy tamoxifen or a mixture of Z- and E-4-hydroxy tamoxifen were prepared.
Each solution was subdivided into three parts in 30 ml brown glass bottles, then placed in ovens regulated at 25°, 30°, and 40° C.
The relative amounts of Z- and E-4-hydroxy tamoxifen isomers were determined at the initiation of the study and at 2-week, 1-month, 2-month, 3-month, 4-month and 5-month time points.
Operating parameters for the HPLC were as follows:
The order of elution was as follows: • 4-OHT E: retention time about 13.3 min • 4-OHT Z: retention time about 15.0 min.
Percentages of each isomer were calculated using the following formulas: [formula] [formula] D. Data fitting:
The reversible isomerization reaction and the equilibrium reaches are lied by the following relationship: [formula] where • A0=initial concentration of the reagent • Aeq=concentration of the same reagent at equilibrium • A=the concentration of A at time t • kf=forward rate constant • kr=reverse rate constant • t=time measured in months
A plot of log [formula] as a function of time gives a straight line fit with a slope of [formula] and a y-intercept of 0. E. Results

[1] = 25° C., nominal 4-hydroxy tamoxifen concentration (Z + E) in solution 0.02%
[2] = 25° C., nominal concentration (Z + E) 0.04%
[3] = 25° C., nominal concentration (Z + E) 0.06%
[4] = 25° C., nominal concentration (Z + E) 0.08%
[5] = 25° C., nominal concentration (Z + E) 0.10%
[6] = 30° C., nominal concentration (Z + E) 0.02%
[7] = 30° C., nominal concentration (Z + E) 0.04%
[8] = 30° C., nominal concentration (Z + E) 0.06%
[9] = 30° C., nominal concentration (Z + E) 0.08%
[10] = 30° C., nominal concentration (Z + E) 0.10%
[11] = 40° C., nominal concentration (Z + E) 0.02%
[12] = 40° C., nominal concentration (Z + E) 0.04%
[13] = 40° C., nominal concentration (Z + E) 0.06%
[14] = 40° C., nominal concentration (Z + E) 0.08%
[15] = 40° C., nominal concentration (Z + E) 0.10%

| SMILES | Rate constant [1] [month^−1] | Rate constant [2] [month^−1] | Rate constant [3] [month^−1] | Rate constant [4] [month^−1] | Rate constant [5] [month^−1] | Rate constant [6] [month^−1] | Rate constant [7] [month^−1] | Rate constant [8] [month^−1] | Rate constant [9] [month^−1] | Rate constant [10] [month^−1] | Rate constant [11] [month^−1] | Rate constant [12] [month^−1] | Rate constant [13] [month^−1] | Rate constant [14] [month^−1] | Rate constant [15] [month^−1] |
| --- | --- | --- | --- | --- | --- | --- | --- | --- | --- | --- | --- | --- | --- | --- | --- |
| CC/C(=C(\c1ccc(O)cc1)c1ccc(OCCN(C)C)cc1)c1ccccc1 [ICI batch Bx 17] | 0.0347 | 0.0484 | 0.0916 | 0.1476 | 0.2169 | 0.0254 | 0.0801 | 0.1563 | 0.2718 | 0.3103 | 0.0722 | 0.2323 | 0.3924 | 0.5095 | 0.6960 |
| CC/C(=C(\c1ccc(O)cc1)c1ccc(OCCN(C)C)cc1)c1ccccc1 [Batch PANCHIM 7421] | 0.0225 | 0.0637 | 0.0886 | 0.1352 | 0.1827 | 0.0457 | 0.0864 | 0.1487 | 0.1900 | 0.2568 | 0.1097 | 0.2287 | 0.3877 | 0.5311 | 0.6300 |

— patent publication US20050208139A1 (Ascend Therapeutics, Inc., priority 2004, published 2005)
